A short description of assay [1]: A549 cell cytotoxicity, dose response, cytotoxicity control, plate reader, cherry-pick, antagonist series (AID 743412). In kind it is functional, cell-based.
A short description of assay [2]: HEK293 cell cytotoxicity, dose response, cytotoxicity control, plate reader, cherry-picked samples (AID 743446). In kind it is functional, cell-based.
The test system of assay [3] is HT-1080. Description: cytotoxicity in HT1080 fibrosarcoma cells, cell-based, fluorescence readout (AID 620). Conditions: Homo sapiens. In kind it is functional.
The target in assay [4] is Luciferin 4-monooxygenase (Photinus pyralis, UniProt P08659). Description: Counter Screen for Luciferase-based Assay Positives. [Related pubchem assays: 620, 618, 411 ]. (In general: Counterscreens check selectivity or assay interference.)
A short description of assay [5]: HepG2 cell cytotoxicity, dose response, cytotoxicity control, plate reader, cherry-pick, antagonist series (AID 743416). The format is functional, cell-based.
Assay [6] is described as follows: LGR2 antagonists, dose response, cell-based, HEK293, CRE-luciferase reporter, cherry pick, set 2 (AID 743343).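 Also: transfected cells were stimulated with diluted bursicon conditioned medium after compound addition.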 In kind it is functional. In general terms: Reporter assays use an easily measured gene product as a stand-in for the process of interest.
The subject of assay [7] is HEK293. Description: inhibitors of LMP1-driven NF-kB reporter, dose response, cell-based, HEK293, luciferase, cherry-pick (AID 588343). The format is functional. Conditions: Homo sapiens.
Assay [8] can be described thus: MC4R antagonists, dose response, counter-screen for LGR2 antagonist project, cell-based, plate reader, cherry pick (AID 743444).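 Also: transfected HEK 293 cells stimulated with alpha-MSH peptide; potency of inhibitors of the alpha-MSH evoked signal.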 The format is functional.
Assay [9] deals with Cytochrome P450 2D6 (Homo sapiens, UniProt P10635). Description: qHTS Assay for Inhibitors and Substrates of Cytochrome P450 2D6. [Related pubchem assays: 410 ]. The note with it: read-out: Potency. In kind it is ADME. (Quantitative high-throughput screening tests each substance at several concentrations.)
Assay [10] addresses Cytochrome P450 3A4 (Homo sapiens, UniProt P08684). Conditions: Potency.
Assay [11] concerns the target Cytochrome P450 2C19 (Homo sapiens, UniProt P33261). Description: qHTS Assay for Inhibitors and Substrates of Cytochrome P450 2C19. [Related pubchem assays: 410 ]. In kind it is ADME. Conditions: read-out: Potency.
Assay [12] concerns the target Cytochrome P450 2C9 (Homo sapiens, UniProt P11712). Conditions: Potency.
Assay [13] in a line: luciferase reporter signal reduction – luminescence, H4-C neuroglioblastoma cells, dose response (AID 2458).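 Also: H4 neuroglioblastoma cells stably carrying a luciferase reporter gene fusion.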 In kind it is functional, cell-based.
Assay [14] is described as follows: cells. In kind it is functional, cell-based.
Assay [15] has as its system BJ. Description: cytotoxicity toward BJ-TERT fibroblasts, dose response, cell-based, RAS-independent, luminescence (AID 1933). In kind it is functional. Conditions: Homo sapiens.
Assay [16] is described as follows: cytotoxicity toward DRD oncogenic fibroblasts, dose response, cell-based, non-viral oncogenic, luminescence (AID 1934). The note with it: Homo sapiens. In kind it is functional.
Assay [17] can be described thus: inhibitors of SNCA 5'UTR-driven reporter translation, confirmation, H4 neuroglioma cells, luminescence (AID 1988). The format is functional, cell-based.
The nature of assay [18]: Luminescence-based dose response cell-based high throughput screening assay for cytotoxic compounds using the IEC-6 intestinal epithelial cell line. [Related pubchem assays: 1858 (Summary AID.), 1825 (Counterscreen.), 1907 (Confirmation screen.)]. The format is functional.
Assay [19] relates to BJ. Description: cells. In kind it is functional, cell-based. Conditions: Homo sapiens.
Assay [20] in a line: inhibitors of SNCA 5'UTR-driven translation, confirmation, luminescence, H4 neuroglioblastoma cells, dose confirmation (AID 2454).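 Also: H4 neuroglioblastoma cells carrying an alpha-synuclein 5'UTR luciferase reporter; potency for inhibition of the luciferase signal.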 The format is functional, cell-based.
The test system of assay [21] is BJ. Description: cytotoxicity toward BJ-TERT-LT-ST fibroblasts, dose response, cell-based, RAS-independent, luminescence (AID 1935).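 Also: BJ fibroblasts immortalized with TERT plus LT and ST oncogenes.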 The format is functional. Conditions: Homo sapiens.
In assay [22] the test system is BJ. Description: cytotoxicity toward Ras-transformed BJeLR fibroblasts, dose response, cell-based, alamar blue fluorescence, cherrypicked samples (AID 2631).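 Also: confirmatory dose-response assay in RAS-dependent BJ fibroblasts engineered with TERT, LT and ST, with cytotoxicity read by fluorescence.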 Conditions: Homo sapiens. The format is functional.
Assay [23] has as its target T1, Heat shock factor protein 1 (Mus musculus, UniProt P38532).
T1 sequence (P38532 whole entry): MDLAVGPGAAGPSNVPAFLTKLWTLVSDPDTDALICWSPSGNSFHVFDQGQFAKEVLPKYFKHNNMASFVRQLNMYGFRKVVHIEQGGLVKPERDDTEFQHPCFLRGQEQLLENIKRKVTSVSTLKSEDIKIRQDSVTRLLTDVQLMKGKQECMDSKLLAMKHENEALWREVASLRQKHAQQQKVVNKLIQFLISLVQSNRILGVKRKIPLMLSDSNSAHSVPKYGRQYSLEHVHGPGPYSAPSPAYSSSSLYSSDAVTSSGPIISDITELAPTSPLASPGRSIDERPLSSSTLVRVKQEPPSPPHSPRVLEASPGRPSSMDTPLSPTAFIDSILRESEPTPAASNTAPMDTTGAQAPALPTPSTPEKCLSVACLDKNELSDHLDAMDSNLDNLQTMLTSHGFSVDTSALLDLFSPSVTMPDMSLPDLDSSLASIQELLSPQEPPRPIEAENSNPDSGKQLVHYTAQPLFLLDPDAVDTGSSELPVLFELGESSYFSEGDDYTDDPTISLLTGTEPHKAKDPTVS
Description: inhibition of MG132-induced HSE-luciferase signal, confirmation, cell-based, NIH3T3, luminescence, dose retest (AID 2382).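 Also: NIH3T3 fibroblasts with HSF1-driven luciferase reporter stressed by proteasome inhibitor MG132; luminescence from HSF1-driven luciferase expression after 8 hours of MG132 stress.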 In kind it is functional.

Assay [24] is described as follows: Shn3 3'UTR reporter inhibitors, dose response, cell-based, Clone20 osteoblasts, firefly luciferase, cherry-picked (AID 624132).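 Also: firefly luciferase luminescence from reporter carrying the Shn3 3'UTR in osteoblasts.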 In kind it is functional.
The nature of assay [25]: HepG2 cell cytotoxicity, dose response, cytotoxicity control for Shn3 inhibitor project, CellTiter-Glo, cherry-picked (AID 624134). The format is functional, cell-based.
Assay [26] is described as follows: control 3'UTR Renilla luciferase suppression, dose response, counter-screen for Shn3 inhibitor project, cell-based, Clone20-Shn3RL, cherry-picked (AID 624133). The format is functional.
The nature of assay [27]: inhibitors of firefly luciferase expression or activity, dose response, H4 neuroglioma cells, luminescence (AID 1990). In kind it is functional, cell-based.
Assay [28] can be described thus: Luminescence Cell-Based Dose Response HTS to Identify Inhibitors of 5'UTR Stem-Loop Driven Prion Protein mRNA Translation in H4 Neuroglioblastoma Cells. [Related pubchem assays: 1827 (Project Summary), 1813 (Primary HTS)]. In kind it is functional.
The target in assay [29] is T2, Leucine aminopeptidase (Plasmodium falciparum 3D7, UniProt Q8IL11).
T2 sequence (Q8IL11 whole entry): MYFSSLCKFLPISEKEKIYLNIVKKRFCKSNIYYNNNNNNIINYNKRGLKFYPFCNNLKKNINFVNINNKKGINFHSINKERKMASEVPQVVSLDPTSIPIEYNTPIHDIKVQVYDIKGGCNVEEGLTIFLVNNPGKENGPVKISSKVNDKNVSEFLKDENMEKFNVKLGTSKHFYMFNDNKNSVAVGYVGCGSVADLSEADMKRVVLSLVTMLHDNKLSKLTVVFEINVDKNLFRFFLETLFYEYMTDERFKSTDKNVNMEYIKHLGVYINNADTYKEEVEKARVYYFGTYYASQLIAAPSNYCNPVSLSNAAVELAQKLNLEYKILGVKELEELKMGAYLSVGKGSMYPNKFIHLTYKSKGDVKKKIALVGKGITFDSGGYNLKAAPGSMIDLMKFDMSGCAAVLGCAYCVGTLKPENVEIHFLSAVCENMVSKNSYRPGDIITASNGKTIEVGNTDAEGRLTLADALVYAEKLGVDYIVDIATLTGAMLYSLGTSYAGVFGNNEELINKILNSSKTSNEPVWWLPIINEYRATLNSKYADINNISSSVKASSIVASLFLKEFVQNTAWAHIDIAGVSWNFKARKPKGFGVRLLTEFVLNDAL
Description: P. falciparum M17LAP inhibitors, primary screen, biochemical, fluorogenic H-Leu-NHMec substrate, 1536-well (AID 1619). In kind it is functional.

In assay [30] the target is T3, Alkaline phosphatase, tissue-nonspecific isozyme (Homo sapiens, UniProt P05186).
T3 sequence (P05186 whole entry): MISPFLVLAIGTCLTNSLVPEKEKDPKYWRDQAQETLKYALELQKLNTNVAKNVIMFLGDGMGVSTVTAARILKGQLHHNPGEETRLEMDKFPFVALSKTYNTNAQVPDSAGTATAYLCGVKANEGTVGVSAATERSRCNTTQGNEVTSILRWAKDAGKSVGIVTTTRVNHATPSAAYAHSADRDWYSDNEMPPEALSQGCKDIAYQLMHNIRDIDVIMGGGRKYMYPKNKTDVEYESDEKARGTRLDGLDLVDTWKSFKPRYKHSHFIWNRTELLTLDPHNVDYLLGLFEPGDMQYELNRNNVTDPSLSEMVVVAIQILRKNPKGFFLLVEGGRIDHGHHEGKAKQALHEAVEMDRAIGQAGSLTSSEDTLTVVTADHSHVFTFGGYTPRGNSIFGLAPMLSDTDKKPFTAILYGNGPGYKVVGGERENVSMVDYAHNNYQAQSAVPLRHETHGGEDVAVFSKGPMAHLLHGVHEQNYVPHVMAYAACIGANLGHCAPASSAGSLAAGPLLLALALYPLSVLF

Assay [31] relates to Vero. Description: Vero E6 cell cytotoxicity, SAR follow-up, cytotoxicity control for West Nile virus antiviral project, synthesized analogs (AID 2244). The format is functional. The note with it: Chlorocebus sabaeus.

Here are results for eight compounds from ChEMBL document CHEMBL1201862, “PubChem BioAssay data set” (2004).

As a reminder, the EC50 is the midpoint of the concentration-response curve. The IC50 is the point on the concentration scale where inhibition reaches its midpoint. The CC50 is the concentration that lowers cell viability or growth by half.

Active and inactive are the calls of the source.

Sequence of Cytochrome P450 2C9 (P11712 whole entry, the tested form may be a part): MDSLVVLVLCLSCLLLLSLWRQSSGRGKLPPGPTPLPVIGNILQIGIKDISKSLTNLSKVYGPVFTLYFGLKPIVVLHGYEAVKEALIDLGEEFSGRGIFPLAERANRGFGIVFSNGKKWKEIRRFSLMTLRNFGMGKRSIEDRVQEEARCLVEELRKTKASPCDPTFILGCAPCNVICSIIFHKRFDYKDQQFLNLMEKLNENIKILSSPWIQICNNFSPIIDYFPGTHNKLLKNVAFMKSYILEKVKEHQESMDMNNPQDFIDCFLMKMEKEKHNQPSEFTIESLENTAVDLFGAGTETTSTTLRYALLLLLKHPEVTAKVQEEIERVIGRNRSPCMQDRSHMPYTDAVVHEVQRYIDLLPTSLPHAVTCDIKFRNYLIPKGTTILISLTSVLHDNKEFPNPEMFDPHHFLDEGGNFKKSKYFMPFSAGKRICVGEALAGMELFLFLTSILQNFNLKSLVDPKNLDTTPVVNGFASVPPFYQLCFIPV
Sequence of Luciferin 4-monooxygenase (P08659 whole entry): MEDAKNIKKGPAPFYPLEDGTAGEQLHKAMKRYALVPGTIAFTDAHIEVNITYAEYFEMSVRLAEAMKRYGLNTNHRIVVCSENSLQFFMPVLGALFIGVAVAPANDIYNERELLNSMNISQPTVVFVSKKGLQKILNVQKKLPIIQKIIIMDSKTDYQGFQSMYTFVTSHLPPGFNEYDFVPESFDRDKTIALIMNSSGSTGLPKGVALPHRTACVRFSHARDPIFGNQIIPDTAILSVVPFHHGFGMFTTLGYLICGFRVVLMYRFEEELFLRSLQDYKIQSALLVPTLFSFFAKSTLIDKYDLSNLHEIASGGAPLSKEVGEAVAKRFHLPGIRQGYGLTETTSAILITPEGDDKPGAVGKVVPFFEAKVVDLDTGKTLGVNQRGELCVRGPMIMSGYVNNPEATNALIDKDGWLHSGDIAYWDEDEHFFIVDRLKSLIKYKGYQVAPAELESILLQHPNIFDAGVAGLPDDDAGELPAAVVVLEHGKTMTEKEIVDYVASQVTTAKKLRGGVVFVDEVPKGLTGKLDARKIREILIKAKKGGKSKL
Sequence of Cytochrome P450 3A4 (P08684 whole entry): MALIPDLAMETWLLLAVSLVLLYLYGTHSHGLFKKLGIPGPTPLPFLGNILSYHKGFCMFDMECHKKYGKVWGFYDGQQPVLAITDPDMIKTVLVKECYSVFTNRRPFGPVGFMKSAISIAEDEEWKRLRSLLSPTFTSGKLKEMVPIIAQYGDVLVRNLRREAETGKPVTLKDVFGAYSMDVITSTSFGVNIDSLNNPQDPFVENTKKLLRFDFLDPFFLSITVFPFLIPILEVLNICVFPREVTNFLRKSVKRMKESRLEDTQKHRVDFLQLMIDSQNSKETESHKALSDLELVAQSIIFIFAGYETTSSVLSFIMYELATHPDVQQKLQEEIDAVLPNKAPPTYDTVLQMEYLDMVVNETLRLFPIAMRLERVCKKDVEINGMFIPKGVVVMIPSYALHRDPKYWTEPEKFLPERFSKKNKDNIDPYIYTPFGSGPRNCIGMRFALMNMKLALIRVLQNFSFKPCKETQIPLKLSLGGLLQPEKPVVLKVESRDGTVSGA
Sequence of Cytochrome P450 2D6 (P10635 whole entry): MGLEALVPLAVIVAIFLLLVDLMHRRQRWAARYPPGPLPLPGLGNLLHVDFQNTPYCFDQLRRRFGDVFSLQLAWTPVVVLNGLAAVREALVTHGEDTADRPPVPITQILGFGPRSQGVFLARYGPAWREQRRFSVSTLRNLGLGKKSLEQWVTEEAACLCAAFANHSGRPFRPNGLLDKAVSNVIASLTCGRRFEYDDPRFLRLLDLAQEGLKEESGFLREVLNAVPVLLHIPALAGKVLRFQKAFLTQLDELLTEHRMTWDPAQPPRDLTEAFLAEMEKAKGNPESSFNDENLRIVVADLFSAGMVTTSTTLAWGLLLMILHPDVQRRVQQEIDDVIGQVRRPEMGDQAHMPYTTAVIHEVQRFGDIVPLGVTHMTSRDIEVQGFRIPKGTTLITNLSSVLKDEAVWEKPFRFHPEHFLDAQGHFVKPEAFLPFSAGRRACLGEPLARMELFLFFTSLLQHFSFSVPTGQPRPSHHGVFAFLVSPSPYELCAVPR
Sequence of Cytochrome P450 2C19 (P33261 whole entry): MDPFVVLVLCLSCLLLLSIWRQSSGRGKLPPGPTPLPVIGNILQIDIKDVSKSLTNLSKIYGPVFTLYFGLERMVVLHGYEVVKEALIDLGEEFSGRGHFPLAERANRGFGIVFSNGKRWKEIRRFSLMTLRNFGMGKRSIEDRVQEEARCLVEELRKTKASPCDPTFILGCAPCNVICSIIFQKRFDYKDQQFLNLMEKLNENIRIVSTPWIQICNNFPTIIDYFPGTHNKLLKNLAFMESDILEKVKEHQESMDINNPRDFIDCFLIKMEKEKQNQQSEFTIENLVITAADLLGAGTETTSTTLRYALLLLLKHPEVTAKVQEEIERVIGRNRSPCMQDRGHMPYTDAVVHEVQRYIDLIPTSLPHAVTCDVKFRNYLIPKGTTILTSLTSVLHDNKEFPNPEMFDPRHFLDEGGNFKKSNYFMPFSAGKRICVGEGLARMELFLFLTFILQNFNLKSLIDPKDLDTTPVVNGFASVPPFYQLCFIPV

For `O=C(Nc1ccc(CN2CCOCC2)cc1)c1cc2ccccn2n1`, the AC50 was > 52 µM (inactive) in assay [1]; 36 µM (active) in [2]; > 52 µM (inactive) in assay [5]; 2.6 µM (active) in [6]; 3.01 µM (active) in assay [7]; 5.82 µM (active) in assay [8]. For the same compound, the EC50 was > 50 µM (not active) in assay [3] and 71.5 µM (active) in [4].

As to `COC(=O)NC(/C(C(=O)OC)=C(\C)NCc1ccccc1)c1ccccc1` (configuration not stated), the AC50 in [9] is 3.98 µM (inconclusive); in assay [10], 3.98 µM (inconclusive); in assay [11] it was 0.0079 µM (inconclusive); in assay [12] it was 3.16 µM (inconclusive).

As to `Cc1cccc2cc(C#N)c(SCC(=O)N3CC(=O)Nc4ccccc43)nc12`, the concentration giving a half-maximal response (EC50) in [13] is 1.59 µM (active); in [14], 2.36 µM (active); in [15], 0.583 µM (inconclusive); in assay [16], 0.804 µM (active); in assay [17], < 0.1 µM (active); in assay [19] it was 18 µM (active). The EC50 in [20] is 1.42 µM (active); in assay [21], 0.46 µM (active); in assay [22], < 0.104 µM (active). Besides, in assay [18], the IC50 was 0.58 µM (active).

Turning to `CCOc1ccc(OCc2cccc(C(=O)O)c2)cc1`, the AC50 in assay [1] is 21.7 µM (active); in assay [2], 18.9 µM (active); in [5] it was 31 µM (active); in [24], 0.649 µM (active); in assay [25] it was 16.9 µM (active); in assay [26], 21.4 µM (active). Besides, the AC50 was 0.118 µM (active) in assay [6] and 0.137 µM (active) in assay [8]. Also, the EC50 in assay [13] is 0.072 µM (active); in assay [23] it was < 0.16 µM (active); in assay [14] it was 0.101 µM (active); in assay [17], < 0.1 µM (active); in [20], 0.038 µM (active); in assay [27], < 0.1 µM (active). The figures for the EC50 in assay [28] and in assay [22] were < 0.1 µM (active) and > 133 µM (inactive), respectively. In addition, in [29], the IC50 was 24.8 µM (active).

With `COc1cccc2sc(Nc3nc4ccc(NC(C)=O)cc4s3)nc12`, the EC50 in assay [15] is 67.8 µM (active); in [30], > 100 µM (not active); in assay [16], 30 µM (active); in [17], 10.7 µM (active); in assay [19], 28.2 µM (active); in [27], > 120 µM (not active). Further, the figures for the EC50 in assay [21] and in [28] were > 150 µM (not active) and 12.6 µM (active), respectively.

Consider `COC(=O)C(/C=C/C(C)Cc1cc(Br)cc(OCc2ccccc2)c1OC)OCc1ccccc1` (configuration not stated), for which the AC50 in [10] and in assay [12] was 3.16 µM (inconclusive) in each case.

For the compound `c1ccc(-c2cnc(-c3ccccc3)nc2)cc1`, the results for the EC50 in [3] and in assay [4] were > 50 µM (not active) and 14.3 µM (active), respectively.

Consider `O=C(Nc1nc(-c2ccc(Cl)cc2)cs1)c1ccccc1Cl`, for which, in assay [31], the CC50 was > 40 µM (active).
